The values that follow come from ChEMBL document CHEMBL4052800, “Syntheses of cytotoxic novel arctigenin derivatives bearing halogen and alkyl groups on aromatic rings” (Bioorg Med Chem Lett, 2017).

Some results are limits rather than exact numbers.

The subject of the first experiment is HL-60. Put plainly: Cytotoxicity against human HL60 cells assessed as reduction in cell viability after 48 hrs by WST-8 assay relative to control. Format: functional.
Conditions: not given
Take `CCCCOc1ccc(C[C@H]2C(=O)OC[C@@H]2Cc2ccccc2)cc1OCCCC`: the “inhibition (INH)” value amounted to 29%.
For the compound `COc1cc(C[C@H]2C(=O)OC[C@@H]2Cc2ccccc2)cc(OC)c1OC`, the “inhibition (INH)” value worked out at 44%.
Still for that read-out and setting: for `CCCCOc1ccc(/C=C2/C(=O)OC[C@@H]2Cc2ccccc2)cc1` the value was 36%.
The same measure, in the same setting: for `O=C1OC[C@H](Cc2ccccc2)[C@H]1Cc1cccc(O)c1` the value was 45%; for `CCCCCCCOc1ccc(C[C@H]2C(=O)OC[C@@H]2Cc2ccccc2)cc1`, 17%.
Same read-out and setting: for `COc1ccc(C[C@H]2C(=O)OC[C@@H]2Cc2ccccc2)cc1OC` the value was 38%.

The next experiment concerns HeLa. Put plainly: Cytotoxicity against human HeLa cells assessed as reduction in cell viability after 48 hrs by WST-8 assay. In kind it is functional, cell-based.
Conditions: not given
As a reminder, the EC50 is the concentration needed to bring the measured effect to its halfway point. Regarding `CCCCOc1ccc(C[C@H]2C(=O)OC[C@@H]2Cc2ccccc2)cc1`, the EC50 was 27 µM.
With `O=C1OC[C@H](Cc2cccc(F)c2)[C@H]1Cc1ccc(Cl)c(Cl)c1`, the EC50 was found to be 20 µM.
Take `O=C1OC[C@H](Cc2ccccc2)[C@H]1Cc1cc(Cl)cc(Cl)c1`: the EC50 was determined as 17 µM.

The subject of the next experiment is HL-60. Nature of the experiment: Cytotoxicity against human HL60 cells assessed as reduction in cell viability after 48 hrs by WST-8 assay. Format: functional, cell-based. The note with it: HL-60, 48 h.
Take `CCCCOc1ccc(C[C@H]2C(=O)OC[C@@H]2Cc2ccccc2)cc1OCCCC`: the half-maximal effective concentration (EC50) was > 100 µM.
On the same count and under the same terms, for `COc1cc(C[C@H]2C(=O)OC[C@@H]2Cc2ccccc2)cc(OC)c1OC` the value was > 100 µM; for `CCCCOc1ccc(/C=C2/C(=O)OC[C@@H]2Cc2ccccc2)cc1`, > 100 µM.
Same read-out and setting: for `O=C1OC[C@H](Cc2ccccc2)[C@H]1Cc1cccc(O)c1` the value was > 100 µM; for `CCCCCCCOc1ccc(C[C@H]2C(=O)OC[C@@H]2Cc2ccccc2)cc1`, > 100 µM.
For the compound `CCCCOc1ccc(C[C@H]2C(=O)OC[C@@H]2Cc2ccccc2)cc1`, the half-maximal effective concentration (EC50) turned out to be 23 µM.
Still for that read-out and setting: for `COc1ccc(C[C@H]2C(=O)OC[C@@H]2Cc2ccccc2)cc1OC` the value was > 100 µM.
On the same count and under the same terms, for `O=C1OC[C@H](Cc2cccc(F)c2)[C@H]1Cc1ccc(Cl)c(Cl)c1` the value was 14 µM; for `O=C1OC[C@H](Cc2ccccc2)[C@H]1Cc1cc(Cl)cc(Cl)c1`, 23 µM.
